Reference: US11026943B2, “Aminoquinoline derivatives and uses thereof” (UNIVERSITY OF DELHI, priority 2012, dated 2021)

Legend:
[1] = system: neural precursor cells from E14 rat cortices; experiment: In vitro differentiation of Nurr1-transduced neural precursor cells into TH+ DA neurons; type: cell-based
Method: Error bars represent standard deviations.
Neural precursor cells (NPCs) from dissection of rat embryos days 14 cortices (E14) were proliferated in N2 medium supplemented with 20 ng/mL basic fibroblast growth factor (bFGF; R&D Systems, Minneapolis, Minn., USA). Following 3-4 days of bFGF-expansion, NPCs were dissociated in Ca^2+/Mg^2+-free Hank's balanced salt solution (CMF-HBSS, Invitrogen, Carlsbad, Calif.) and re-plated onto coverslips (12 mm diameter; Carolina Biological Supply Company, Burlington, N.C.) at 32,000 cells/coverslip pre-coated with poly-L-ornithine (PLO; […], Sigma, St Louis, Mo.) at 37° C. overnight followed by fibronectin (FN; […], Sigma) overnight. Prior to drug treatment, NPCs were transduced with Nurr1-expressing retrovirus of MOI 5 in the presence of polybrene (1 μg/ml, Sigma), cultured overnight in N2, and then differentiated. Getting started chemical treatment (every day for 2 hours), bFGF was not added anymore^3.
Cells were fixed in 4% paraformaldehyde (PFA) for 20 min, washed and then incubated with blocking buffer [PBS, 10% goat serum (Invitrogen), 0.3% Triton X-100 (Sigma)] for 1 hour. […] Following washes with PBS, appropriate fluorescence-tagged secondary antibodies (Jackson Immunoresearch Laboratories, West Grove, Pa.) were used for visualization. […]

[2] = molecular target: T1, Nurr1 (Mus musculus, UniProt Q06219); experiment: High-throughput cell-based screen of Nurr1-dependent TH promoter activation; settings: library of 960 FDA-approved drugs
T1 construct: Full-length mouse Nurr1cDNA was amplified by RT-PCR from pSV40Nurr1; expressed in transfected cells; host or cells: SK-N-BE(2)C human neuroblastoma cells
From the text: The pTH2600LUC reporter construct contains the 2.6 kb upstream sequences of the rat tyrosine hydroxylase gene in front of a firefly luciferase gene in pGL3-basic vector. A Nurr1-expression plasmid, pSV40Nurr1, was kindly provided by Dr Orla M. Conneely at Baylor College of Medicine (Houston, Tex., USA). Full-length mouse Nurr1cDNA was amplified by RT-PCR from pSV40Nurr1 using forward 5′-[sequence]-3′ (SEQ ID NO: 1) and reverse 5′-[sequence]-3′ (SEQ ID NO: 2) oligonucleotides.
(§1) Human neuroblastoma SK-N-BE(2)C cells were maintained in Dulbecco's modified Eagle's medium (DMEM) supplemented with 10% fetal bovine serum. All culture media contained 100 units/ml penicillin and 100 μg/ml streptomycin. For transfection, cells were plated at 1.5×10^5 cells/well in the DMEM media without antibiotic into 24-well plates 1 day prior to transfection. Transfections were carried out by the Lipofectamine plus (Invitrogen) according to the manufacture's protocol. Total DNA amount was 0.5 μg per well with 0.1 μg of pRSV-β-gal as an internal control. 6 hours after transfection, compounds in the DMEM media with 1% charcoal-stripped fetal calf serum was added and incubated overnight. […] Then equal volume of firefly luciferase substrate was added and the luciferase activity was measured using a Luminometer plate reader and normalized for beta-galactosidase activity.

[3] = molecular target: Nurr1 LBD (Mus musculus, UniProt Q06219); experiment: Surface plasmon resonance (BIAcore) binding, Nurr1-LBD
Method: Binding experiments were performed with the surface Plasmon Resonance-based biosensor instrument BIAcore 3000 (BIAcore AB, Uppsala). Immobilization of the purified proteins on the sensor surface was performed following the standard amine coupling procedure according to manufacturer's instructions. The final immobilization response of each protein was 6000 resonance units. A reference surface was generated simultaneously under the same conditions with BSA and used as a blank to correct for instrument and buffer artifacts. AQ and kanamycin were injected at variable concentrations at 20 μl/min flow rate, and binding to the protein immobilized on the chip was monitored in real-time. […] Binding data were analyzed using the BIAcore 3000 CONTROL® software and the BIAEVALUATION® software.
To investigate whether AQ and CQ physically interact with Nurr1's LBD, the inventors purified the Nurr1 LBD polypeptide (amino acid 328-598) and analyzed their physical binding using the Biacore S51 SPR sensor, which has a higher sensitivity and improved fluidics, enabling the monitoring of small signal changes derived from binding of compounds to proteins.

[4] = system: murine microglial BV-2 cells; type: cell-based, mouse; settings: 10 ng/ml LPS for 4 hrs, AQ 10 and 15 μM
Method: To prepare primary cultures of DA neurons, the ventral mesencephalon was removed from 14 day gestation Sprague Dawley rat embryo (Charles River, Cambridge, Mass.). Tissues were incubated with 0.01% trypsin in MEM (MEM, Invitrogen) for 10 min at 37° C. and triturated using a constricted Pasteur pipette. DA neurons were plated at 1.0×10^5 cells per 9 mm diameter glass cover slip precoated with 100 μg/ml poly-D-lysine (Sigma, St. Louis, Mo.) and 4 μg/ml laminin (Invitrogen). DA neurons were maintained at 37° C. in a humidified 5% CO2 atmosphere in minimum essential medium supplemented with 10% FBS (Hyclone), 2 mM glutamine and 6.0 g/l glucose. At 5 or 6 days in vitro, DA neurons were washed with MEM and treated with various experimental reagents for the time periods indicated. Reagents used were 6-OHDA (Sigma), N-acetyl-cysteine, N-benzyloxycarbonyl-Val-Ala-Asp-fluoromethylketone (Z-VAD-fink; Enzyme Systems Products, Livermore, Calif.). BV-2 cells, a microglial-like mouse cell line, were thawed and passaged until logarithmic growth was achieved. Cell cultures were maintained in 6-well culture plate (Corning Costar, Corning, N.Y.) at a concentration of 1.0×10^5 cells per well, in the growth medium consisting of DMEM (Sigma, St. Louis, Mo.), supplemented with 10% fetal bovine serum (FBS; Hyclone) heat inactivated at 56° C. for 30 min, 2 mM L-glutamine(Sigma) and 1× Pen-Strep (Invitrogen). […]

[5] = system: PC12 cells; experiment: 6-OHDA toxicity in PC12 cells (MTT reduction assay); type: cell-based, rat
Method: Cell viabilities were determined by the conventional MTT reduction assay. After incubation for indicated times, cells were treated with the MTT solution (final concentration, 1 mg/ml, Sigma) for 1 h. Formazan grains formed in intact cells were solubilized with MTT Solubilization. Solution containing 10% Triton X-100 plus 0.1 N HCl in anhydrous isopropanol for 24 h and then absorbance at 570 nm was measured with a microplate reader (Molecular Devices, Menlo Park, Calif.).

[6] = system: LBDs of Nur77, GR, LXR, RXR, PPARα, PPARγ; experiment: Target selectivity: GAL4-LBD reporter assays of other nuclear receptors; type: cell-based; settings: FIG. 19; 30 μM AQ
Method: The positive reactivity of these NR constructs was confirmed by the known activators (2 nM dexamethasone, 20 nM retinoic acid, 2 μM GW3965, 50 nM GW7647, and 5 nM GW1929 for GR, RXR, LXR, PPARα, and PPARγ, respectively). The basal level of transcriptional activity was normalized to 1. Bars represent means±SEM from three independent experiments.
as §1

T1 sequence (Q06219 whole entry): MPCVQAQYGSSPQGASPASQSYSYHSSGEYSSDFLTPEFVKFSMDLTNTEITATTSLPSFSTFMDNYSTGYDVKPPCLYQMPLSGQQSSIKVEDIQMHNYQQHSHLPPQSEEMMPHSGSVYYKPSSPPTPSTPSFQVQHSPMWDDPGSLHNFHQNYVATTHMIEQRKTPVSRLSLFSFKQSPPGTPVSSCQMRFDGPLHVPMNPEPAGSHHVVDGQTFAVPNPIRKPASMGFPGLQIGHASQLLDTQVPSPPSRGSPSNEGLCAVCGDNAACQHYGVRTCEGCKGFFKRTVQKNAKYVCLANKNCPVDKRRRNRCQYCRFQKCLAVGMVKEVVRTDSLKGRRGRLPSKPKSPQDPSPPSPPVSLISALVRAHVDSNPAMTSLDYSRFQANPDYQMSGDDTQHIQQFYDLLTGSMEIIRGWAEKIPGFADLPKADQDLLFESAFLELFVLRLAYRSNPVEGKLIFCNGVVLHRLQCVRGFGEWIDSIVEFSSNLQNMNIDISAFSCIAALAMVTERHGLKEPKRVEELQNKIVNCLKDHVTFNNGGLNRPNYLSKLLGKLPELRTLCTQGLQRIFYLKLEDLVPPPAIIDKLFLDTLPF
Chain of Nurr1 LBD (Q06219 328-598): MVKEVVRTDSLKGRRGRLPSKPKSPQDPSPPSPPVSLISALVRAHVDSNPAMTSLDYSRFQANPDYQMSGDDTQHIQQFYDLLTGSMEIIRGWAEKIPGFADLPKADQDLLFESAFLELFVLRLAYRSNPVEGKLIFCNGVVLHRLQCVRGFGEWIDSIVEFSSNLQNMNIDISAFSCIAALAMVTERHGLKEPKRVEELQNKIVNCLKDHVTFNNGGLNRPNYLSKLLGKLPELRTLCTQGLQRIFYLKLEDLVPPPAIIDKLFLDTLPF

## CCN(CC)Cc1cc(Nc2ccnc3cc(Cl)ccc23)ccc1O [AQ, amodiaquine]
[1]
  number of TH+ neurons generated from neural stem cells: enhanced
[1]; in vitro differentiation for 9 d
  mRNA expression levels of TH, DAT, VMAT and AADC genes: enhanced
[2]
  screen outcome: hit compounds
[3]
  binding to Nurr1-LBD (SPR): specifically bound
[4]
  LPS-induced expression of pro-inflammatory cytokines: suppresses
[5]
  neuroprotective effect in PC12 cells: neuroprotective effect
[6]
  transcriptional activity of other nuclear receptors: unable to induce
